Measurements published in ChEMBL document CHEMBL3886249, “Serine/threonine kinase inhibitors” (2015).

Biological target: Mitogen-activated protein kinase 1 (Homo sapiens, UniProt P28482)
Assay: Enzymatic Assay: Compounds were tested in an enzymatic assay using human ERK-2 (Mitogen Activated Kinase 1), recombinantly expressed as an n-terminal 6-His fusion protein in E. coli and corresponding to aa 8-360. […] Test compounds were diluted in DMSO in 3-fold serial dilutions at 100x final concentrations.

Mitogen-activated protein kinase 1, sequence (P28482 whole entry, the tested form may be a part): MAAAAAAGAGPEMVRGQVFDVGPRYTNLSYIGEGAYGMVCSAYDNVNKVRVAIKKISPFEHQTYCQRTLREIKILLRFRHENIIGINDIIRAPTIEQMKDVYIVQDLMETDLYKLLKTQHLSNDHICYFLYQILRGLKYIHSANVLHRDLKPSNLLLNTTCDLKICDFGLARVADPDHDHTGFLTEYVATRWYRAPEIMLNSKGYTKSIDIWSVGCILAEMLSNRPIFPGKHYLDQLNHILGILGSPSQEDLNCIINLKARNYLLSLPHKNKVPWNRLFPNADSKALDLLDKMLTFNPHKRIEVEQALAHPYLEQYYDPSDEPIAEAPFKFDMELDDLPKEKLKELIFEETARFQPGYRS

| IC50 [nM] | SMILES |
| --- | --- |
| 144 | CC(C)Nc1ncc2c(n1)CN(C(=O)N[C@@H](c1ccc(C(F)(F)F)c(F)c1)c1cccc(=O)[nH]1)CC2 |
| 2.39 | CC1CC(Nc2ncc3c(n2)CN(C(=O)N[C@H](CO)c2ccc(Cl)c(F)c2)CC3)CCO1 (some centres not stated) |
